The values that follow come from US10987344B2, “Pharmaceutical composition capable of the incorporation of lenalidomide in various crystalline modifications” (GRINDEKS, A JOINT STOCK COMPANY, priority 2015, dated 2021).

Structures are written as SMILES. In brackets after ≈: the same amount, converted by molar mass. Structures can show the parent of a compound that is named as a salt. Where two headings read alike, the source gives them in different places.

The nature of series [1]: Particle size distribution (d90), Malvern Mastersizer 2000, wet dispersion in cyclohexane. It is filed as physicochemical. As to the method: The D90 value is defined such that 90% by volume of the particles have a particle size smaller than the d90 value and 10% by volume of the particles have a greater particle size greater than the d90 value.
Sample solution. Place 50 mg of well mixed sample to a 100 mL beaker. Add 25 mL of cyclohexane. Using Pasteur pipette transfer small aliquots of sample slurry to the measuring cuvette until the concentration reading is good. The beaker is swirled efficiently before each pipetting.
Measurement according to the operating instructions. Perform three successive determinations, from which calculate the mean value.

Series [2] in a line: Solubility of Lenalidomide modifications: saturated solutions in three media, HPLC analysis. It is filed as physicochemical. The method, then:
As the case for their visual appearance, also the solubility of those different Lenalidomide modifications is quite different.
• Solubilities are determined by preparing saturated solutions in the three media, followed by HPLC-analysis.

The mark [3] stands for this setting: as prepared in reference example 1 (not milled).
The mark [4] stands for this setting: 0.1M hydrochloric acid, pH 1, simulated gastric fluid, thermodynamic from solid, 0.1M HCl, pH 1.0, read-out: Solubility.
[5] abbreviates: acetate buffer, pH 4.5, aqueous buffer, thermodynamic from solid, Acetate buffer, pH 4.5, read-out: Solubility.
Where [6] appears, read: phosphate buffer, pH 6.8, aqueous buffer, thermodynamic from solid, Phosphate buffer, pH 6.8, read-out: Solubility.

What is called Solubility is the concentration that dissolves in the medium under given conditions. Turning to `Nc1cccc2c1CN(C1CCC(=O)NC1=O)C2=O` (racemic) [Base form A, (RS)-3-(4-Amino-1-oxo 1,3-dihydro-2H-isoindol-2-yl)piperidine-2,6-dione], the “PSD, d90” value in series [1] (setting [3]) is given as 219 μm; in series [1] (example 2, after milling 15 min at 20 Hz), 35 μm. In addition, the Solubility in series [2] (0.1M HCl, pH 1.0) stood at 4760 µg/mL (≈ 18400 µM); in series [2] (Acetate buffer, pH 4.5) it was 430 µg/mL (≈ 1660 µM); in series [2] (Phosphate buffer, pH 6.8) it was 390 µg/mL (≈ 1500 µM).
In the case of `Nc1cccc2c1CN(C1CCC(=O)NC1=O)C2=O` (racemic) [Base form B, (RS)-3-(4-Amino-1-oxo 1,3-dihydro-2H-isoindol-2-yl)piperidine-2,6-dione], the Solubility was 2740 µg/mL (≈ 10600 µM) in series [2] (setting [4]), 330 µg/mL (≈ 1270 µM) in series [2] (setting [5]) and 330 µg/mL (≈ 1270 µM) in series [2] (setting [6]).
Turning to `Nc1cccc2c1CN(C1CCC(=O)NC1=O)C2=O` (stereo not shown) [DMSO solvate], the Solubility in series [2] (setting [4]) is 6330 µg/mL; in series [2] (setting [5]), 380 µg/mL; in series [2] (setting [6]) it was 350 µg/mL.
As for `Nc1cccc2c1CN(C1CCC(=O)NC1=O)C2=O` (stereo not shown) [HCl salt], the “PSD, d90” value came out at 434 μm in series [1] (setting [3]) and 43 μm in series [1] (example 2, after milling 15 min at 20 Hz, listed as Hydrochloride salt). Further, the Solubility in series [2] (0.1M HCl, pH 1.0) was 9000 µg/mL; in series [2] (Acetate buffer, pH 4.5), 370 µg/mL; in series [2] (Phosphate buffer, pH 6.8) it was 330 µg/mL. For the same compound, the “Solubility relative to base form B” value in series [2] (0.1M hydrochloric acid at pH1) is “more than 3 times”.
For `Nc1cccc2c1CN(C1CCC(=O)NC1=O)C2=O` (stereo not shown) [NH4Cl cocrystal], the “PSD, d90” value is 383 μm in series [1] (setting [3]) and 31 μm in series [1] (example 2, after milling 15 min at 20 Hz, listed as Ammonium chloride cocrystal). Besides, the Solubility in series [2] (0.1M HCl, pH 1.0) was 7760 µg/mL; in series [2] (Acetate buffer, pH 4.5), 420 µg/mL; in series [2] (Phosphate buffer, pH 6.8), 360 µg/mL.
